Structures can show the parent of a compound that is named as a salt.
Legend:
[1] = cited from earlier work
dissolution rate = assay type: physicochemical
[2] = stability towards oxidation and discoloration on storage exposed to air; details: storage period of 30 days at room temperature, in contrast to other acid addition salts, e.g. maleate and gluconate
From the text: HPLC can be performed after preparation of the salts and repeated after 14 days of storage at room temperature under normal air containing about 21% oxygen.
HPLC analysis can be performed after isolation and drying of flupirtine sulfonate salts and repeated after 14 days of storage at room temperature under open air.
Discolouration can be measured using optical comparison with a standard: the RAL scale of colours (see list). The colour changes during the experiment is compared to this standard list and the appropriate value is noted. The intensity is increasing on a scale ranging from 1 to 10. A higher number means more discolouration. The increase in colour intensity is not proportional but qualitative.

dissolution rate (dissolution rate)	stability towards oxidation and towards discoloration [2]	Structure (SMILES)	solubility in water [1]
0.088 [μg/mL]/min		CCOC(=O)Nc1ccc(NCc2ccc(F)cc2)nc1N [flupirtine maleate]	insoluble
	substantially improved stability	CCOC(=O)Nc1ccc(NCc2ccc(F)cc2)nc1N.CS(=O)(=O)O [flupirtine mesylate, 2-amino-3-carbethoxyamino-6-(4-fluoro-benzylamino)-pyridine mesylate]	
	substantially improved stability	CCC(=O)O.CCOC(=O)Nc1ccc(NCc2ccc(F)cc2)nc1N [flupirtine propionate, 2-amino-3-carbethoxyamino-6-(4-fluoro-benzylamino)-pyridine propionate]	
	substantially improved stability	CC(=O)O.CCOC(=O)Nc1ccc(NCc2ccc(F)cc2)nc1N [flupirtine acetate, 2-amino-3-carbethoxyamino-6-(4-fluoro-benzylamino)-pyridine acetate]	
